According to PubChem BioAssay AID248 (DTP/NCI, 2004):
Values joined by “and” are separate entries in the source; they are usually repeats but may differ in a detail not shown here. Equal values may be shown once. Inconclusive results and toxic doses are left out. No stated cut-off is given here; in the data, active means T/C of 150% or more; inactive means T/C below 125%.

Tested on: L1210 leukemia ip in BDF1 mice, survival T/C
Test: NCI In Vivo Anticancer Drug Screen. Data for tumor model L1210 Leukemia (intraperitoneal) in B6D2F1 (BDF1) mice
Details: endpoint: mean survival time, higher = longer survival
Outline: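 In this screen, tumor-bearing mice given compound are compared to those given vehicle, and their survival values are reported as a treated-to-control quotient.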

[1] = dose: 100.0 mg/kg/injection, schedule: Q01DX009 (ip), vehicle: saline
[2] = dose: 200.0 mg/kg/injection, schedule: Q01DX009 (ip), vehicle: saline
[3] = dose: 400.0 mg/kg/injection, schedule: Q01DX009 (ip), vehicle: saline
[4] = dose: 100.0 mg/kg/injection, schedule: Q01DX001 (ip), vehicle: saline with Tween-80
[5] = dose: 200.0 mg/kg/injection, schedule: Q01DX001 (ip), vehicle: saline with Tween-80
[6] = dose: 400.0 mg/kg/injection, schedule: Q01DX001 (ip), vehicle: saline with Tween-80
[7] = dose: 100.0 mg/kg/injection, schedule: Q01DX001 (ip), vehicle: saline
[8] = dose: 200.0 mg/kg/injection, schedule: Q01DX001 (ip), vehicle: saline
[9] = dose: 400.0 mg/kg/injection, schedule: Q01DX001 (ip), vehicle: saline
[10] = dose: 100.0 mg/kg/injection, schedule: Q01DX009 (ip), vehicle: Klucel (hydroxypropylcellulose) (HPC)
[11] = dose: 200.0 mg/kg/injection, schedule: Q01DX009 (ip), vehicle: Klucel (hydroxypropylcellulose) (HPC)
[12] = dose: 400.0 mg/kg/injection, schedule: Q01DX009 (ip), vehicle: Klucel (hydroxypropylcellulose) (HPC)
[13] = dose: 100.0 mg/kg/injection, schedule: Q01DX009 (ip), vehicle: saline with Tween-80
[14] = dose: 100.0 mg/kg/injection, schedule: Q04DX002 (ip), vehicle: Klucel (hydroxypropylcellulose) (HPC)
[15] = dose: 100.0 mg/kg/injection, schedule: Q04DX002 (ip), vehicle: saline with Tween-80
[16] = dose: 100.0 mg/kg/injection, schedule: Q04DX003 (ip), vehicle: saline with Tween-80
[17] = dose: 200.0 mg/kg/injection, schedule: Q01DX009 (ip), vehicle: saline with Tween-80
[18] = dose: 200.0 mg/kg/injection, schedule: Q04DX002 (ip), vehicle: Klucel (hydroxypropylcellulose) (HPC)
[19] = dose: 200.0 mg/kg/injection, schedule: Q04DX002 (ip), vehicle: saline with Tween-80
[20] = dose: 200.0 mg/kg/injection, schedule: Q04DX003 (ip), vehicle: saline with Tween-80
[21] = dose: 400.0 mg/kg/injection, schedule: Q04DX002 (ip), vehicle: Klucel (hydroxypropylcellulose) (HPC)
[22] = dose: 400.0 mg/kg/injection, schedule: Q04DX002 (ip), vehicle: saline with Tween-80
[23] = dose: 400.0 mg/kg/injection, schedule: Q04DX003 (ip), vehicle: saline with Tween-80
[24] = dose: 100.0 mg/kg/injection, schedule: Q04DX003 (ip), vehicle: Klucel (hydroxypropylcellulose) (HPC)
[25] = dose: 200.0 mg/kg/injection, schedule: Q04DX003 (ip), vehicle: Klucel (hydroxypropylcellulose) (HPC)

Measured: T/C

O=c1[nH]cnc2c1ncn2C1OC(CF)C(O)C1O (stereo unspecified)
inactive: [1] 101 % of control | dose: 100.0 mg/kg/injection, schedule: Q04DX003 (ip), vehicle: other 112 % of control | [2] 101 % of control | dose: 200.0 mg/kg/injection, schedule: Q04DX003 (ip), vehicle: other 103 % of control | [3] 101 % of control | dose: 400.0 mg/kg/injection, schedule: Q04DX003 (ip), vehicle: other 98 % of control

COc1cccc2c1CCC1=C2CC2C(=O)C1CCC2(C)O (stereo unspecified)
inactive: [1] 109 % of control | dose: 100.0 mg/kg/injection, schedule: Q04DX003 (ip), vehicle: saline 94 % of control | [2] 108 % of control | dose: 200.0 mg/kg/injection, schedule: Q04DX003 (ip), vehicle: saline 119 % of control | [3] 101 % of control | dose: 400.0 mg/kg/injection, schedule: Q04DX003 (ip), vehicle: saline 110 % of control

NC(CSC(c1ccccc1)(c1ccccc1)c1ccc(F)cc1)C(=O)O (stereo unspecified)
inactive: dose: 5.5 mg/kg/injection, schedule: Q01DX009 (ip), vehicle: saline 117 % of control | dose: 8.2 mg/kg/injection, schedule: Q01DX009 (ip), vehicle: saline 117 % of control | dose: 100.0 mg/kg/injection, schedule: Q01DX009 (ip), vehicle: other 100 % of control
active: dose: 50.0 mg/kg/injection, schedule: Q01DX009 (ip), vehicle: saline 161 % of control

CC1(C)N=C(N)N=C(N)N1c1cccc(OCCOc2cccc(N)c2)c1
inactive: dose: 5.0 mg/kg/injection, schedule: Q01DX001 (ip), vehicle: saline 91 % of control | dose: 10.0 mg/kg/injection, schedule: Q01DX001 (ip), vehicle: saline 92 % of control | dose: 20.0 mg/kg/injection, schedule: Q01DX001 (ip), vehicle: saline 94 % of control | dose: 40.0 mg/kg/injection, schedule: Q01DX001 (ip), vehicle: saline 89 % of control | dose: 100.0 mg/kg/injection, schedule: Q01DX001 (ip), vehicle: Klucel (hydroxypropylcellulose) (HPC) 106 % of control

COC(=O)c1cc(OC)c(OC)c(OC)c1
inactive: [4] 100 % of control | [5] 98 % of control | [6] 96 % of control

COC1OC(CI)C(O)C(O)C1O (stereo unspecified)
inactive: [7] 109 % of control | [8] 109 % of control | [9] 120 % of control

C=CCNC(=S)Nc1cccc(O)c1
inactive: [10] 95 % of control | [11] 104 % of control | [12] 107 % of control

NC(=O)/C=C/C(=O)O
inactive: [4] 97 % of control | [13] 98 % of control and 101 % of control | [14] 88 % of control | [15] 94 % of control and 97 % of control | [16] 92 % of control | [5] 108 % of control | [17] 98 % of control and 116 % of control | [18] 88 % of control | [19] 97 % of control and 99 % of control | [20] 106 % of control | [6] 96 % of control | [21] 91 % of control | [22] 90 % of control | [23] 94 % of control

O=[N+]([O-])c1ccc(OCc2ccccc2)cc1
inactive: [16] 96 % of control | [20] 92 % of control | [23] 94 % of control

CN(CC(=O)C(C#N)c1ccccc1)c1ccccc1 (stereo unspecified)
inactive: dose: 50.0 mg/kg/injection, schedule: Q01DX001 (ip), vehicle: carboxymethylcellulose (CMC) 98 % of control | dose: 100.0 mg/kg/injection, schedule: Q01DX001 (ip), vehicle: carboxymethylcellulose (CMC) 93 % of control | dose: 200.0 mg/kg/injection, schedule: Q01DX001 (ip), vehicle: carboxymethylcellulose (CMC) 91 % of control | dose: 400.0 mg/kg/injection, schedule: Q01DX001 (ip), vehicle: carboxymethylcellulose (CMC) 98 % of control

CC(=O)c1ccc(O)cc1
inactive: [14] 114 % of control | [18] 96 % of control | [21] 96 % of control

Cc1ccc(Cl)cc1N=Cc1ccccc1O
inactive: [16] 94 % of control | [23] 98 % of control

CCCCCCCCCCCCCC(CCC)CCC
inactive: [7] 94 % of control | [8] 96 % of control | [9] 94 % of control

Cc1ccc(Cl)c(NC(=O)Nc2cccc(F)c2)c1
inactive: [10] 94 % of control | [11] 87 % of control | [12] 89 % of control

CCCCOC(=O)c1ccc(NC(=O)Nc2ccccc2CC)cc1
inactive: [10] 102 % of control | [11] 109 % of control | [12] 94 % of control

Cc1cc(C)c(NC(=S)NC(=O)/C=C/c2ccccc2)c(C)c1
inactive: [4] 100 % of control | [13] 97 % of control and 89 % of control | [15] 101 % of control | [16] 92 % of control | [5] 92 % of control | [17] 101 % of control and 107 % of control | [19] 104 % of control | [20] 92 % of control | [6] 97 % of control | dose: 400.0 mg/kg/injection, schedule: Q01DX009 (ip), vehicle: saline with Tween-80 92 % of control and 96 % of control | [22] 87 % of control | [23] 91 % of control

CCCNC(=O)C1C2C=CC(CC2)C1C(=O)NCCC (stereo unspecified)
inactive: [16] 92 % of control | [20] 100 % of control | [23] 96 % of control

Cc1ccc(C2(C(=O)O)CCCCC2)cc1
inactive: dose: 50.0 mg/kg/injection, schedule: Q01DX009 (ip), vehicle: Klucel (hydroxypropylcellulose) (HPC) 96 % of control | [10] 90 % of control | [24] 102 % of control | [11] 88 % of control | [25] 98 % of control

Cc1cccc(NC(=O)c2c(Cl)c(Cl)c(Cl)c(Cl)c2C(=O)O)c1C
inactive: [14] 91 % of control | [18] 100 % of control

COc1ccc(OC)c2c(C)c(C)[nH]c12
inactive: dose: 50.0 mg/kg/injection, schedule: Q01DX001 (ip), vehicle: saline 98 % of control | [7] 93 % of control | [8] 109 % of control | [9] 106 % of control

Cc1cc(C)n(CO)n1
inactive: [10] 107 % of control | [24] 100 % of control | [11] 108 % of control | [25] 110 % of control | dose: 400.0 mg/kg/injection, schedule: Q04DX003 (ip), vehicle: Klucel (hydroxypropylcellulose) (HPC) 112 % of control

OC(COc1ccccc1)CN1CCN(c2cccc(Cl)c2)CC1 (stereo unspecified)
inactive: [7] 97 % of control | [8] 95 % of control | [9] 92 % of control

Nc1ncnc(N)c1[N+](=O)[O-]
inactive: dose: 125.0 mg/kg/injection, schedule: Q01DX Z (ip), vehicle: methylcellulose (MC) 88 % of control

CC(=O)NNC(=O)C1CCCCN1 (stereo unspecified)
inactive: dose: 100.0 mg/kg/injection, schedule: Q01DX001 (ip), vehicle: water 101 % of control | dose: 200.0 mg/kg/injection, schedule: Q01DX001 (ip), vehicle: water 100 % of control | dose: 400.0 mg/kg/injection, schedule: Q01DX001 (ip), vehicle: water 103 % of control

CC(c1ccccc1)n1cnc2c(N(CCO)CCO)ncnc21 (stereo unspecified)
inactive: [7] 117 % of control | [8] 104 % of control | [9] 101 % of control
